Active and inactive are the calls of the source.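 The calls were made as follows: active = compounds lowering labeled HDL uptake signal, with AC50 at most ten times the top tested dose; inconclusive = flat partial inhibition between 30 and 70% or unreliable fit; inactive = the rest.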

This passage reports activity change, negative = inhibition and AC50 results from PubChem BioAssay AID540354 (Broad Institute, 2011).

Test system in one assay: not listed separately
Nature of the assay: SR-BI mediated HDL uptake inhibitors, dose response, ldlA[mSR-BI] CHO cells, dry powder samples (AID 540354). Particulars: ldlA[mSR-BI] CHO cells, DiI-HDL uptake fluorescence, 3 h; at 35 µM (top of the series).
`C[C@H](CO)N1C[C@H](C)[C@H](CN(C)S(=O)(=O)c2ccc(F)cc2)Oc2ccc(NC(=O)Cc3ccccc3)cc2C1=O`: the activity change, negative = inhibition is -3.31% (inactive).
As to `C[C@H](CO)N1C[C@H](C)[C@H](CN(C)S(=O)(=O)c2ccc(F)cc2)Oc2ccc(NS(C)(=O)=O)cc2C1=O`, the activity change, negative = inhibition is -1.08% (inactive).

The test system of the next assay is ldlA[mSR-BI] CHO cells, DiI-HDL uptake fluorescence, 3 h. The assay is described as above.
Settings: not given
For `COc1ccc(-c2nnn(CC(=O)N(C3CCCCC3)C(C)C(=O)NC3CCCC3)n2)cc1OC` (stereo not drawn), the AC50 was 28 nM.
With `C[C@H]1CN([C@@H](C)CO)C(=O)c2cccc(NS(C)(=O)=O)c2O[C@@H]1CN(C)Cc1ccc(Cl)c(Cl)c1`, the AC50 is 19400 nM.
In the case of `Nc1ccc(C(=O)Nc2ccc(-c3nc4ccc(NC(=O)c5ccc(N)cc5)cc4[nH]3)cc2)cc1`, the AC50 was 813 nM.
Still for that read-out and setting: the result for `O=C(Nc1cccc(NC(=O)c2cc([N+](=O)[O-])ccc2Cl)n1)c1cc([N+](=O)[O-])ccc1Cl` reads 1960 nM.
Turning to `C[C@@H]1CN([C@H](C)CO)C(=O)c2cc(NC(=O)Cc3cn(C)c4ccccc34)ccc2O[C@H]1CN(C)S(C)(=O)=O`, the AC50 is 18200 nM.
As to `CC(C)(C)NC(=O)N1CCN(c2ncccc2C(F)(F)F)CC1`, the AC50 is 292 nM.
On the same count and under the same terms, in the case of `Cc1cc(C)n(CC(=O)NC2CCCc3c2cnn3-c2ccc(C)c(C)c2)n1` (stereo not drawn) it was 376 nM.
Still for that read-out and setting: in the case of `C[C@H]1CN([C@@H](C)CO)C(=O)c2cccc(NC(=O)Nc3ccccc3)c2O[C@@H]1CN(C)Cc1ccc(C(F)(F)F)cc1` it was 28000 nM; in that of `Cc1cc(C)c2c(c1)NC(c1cc3c(cc1Br)OCO3)C1CC=CC21` (stereo not drawn), 505 nM; in that of `Cc1ccccc1NC(=O)NCC1CCN(c2ccc(S(=O)(=O)N3CCOCC3)cc2)CC1`, 262 nM.
On the same count and under the same terms, the result for `COc1cccc(-c2csc(N3CCN(C(=S)Nc4cccc(Cl)c4)CC3)n2)c1` reads 1890 nM; that for `Cc1ccc2oc(-c3cccc(NC(=O)c4cc(-n5cnnc5)ccc4Cl)c3)nc2c1`, 593 nM; that for `C[C@@H]1CN([C@H](C)CO)C(=O)c2cc(NC(=O)Cc3cn(C)c4ccccc34)ccc2O[C@@H]1CN(C)S(=O)(=O)c1ccc(F)cc1`, 25700 nM.
`COc1ccc([C@H]2CC(=O)C=C(c3cccc4c3sc3ccccc34)C2)cc1OC`: the AC50 was 208 nM.
For the molecule `C[C@@H]1CN([C@H](C)CO)C(=O)c2cc(NC(=O)Cc3cn(C)c4ccccc34)ccc2O[C@H]1CN(C)S(=O)(=O)c1ccccc1`, the AC50 is 1290 nM.
The same measure, in the same setting: in the case of `O=C(Nc1ccc(-c2nc3ccc(NC(=O)c4ccccc4[N+](=O)[O-])cc3[nH]2)cc1)c1ccccc1[N+](=O)[O-]` it was 251 nM.
The same measure, in the same setting: in the case of `CCOC(=O)Nc1cccc(NC(=O)c2cc(OC)cc(OC)c2)c1` it was 546 nM; in that of `C[C@@H]1CN([C@H](C)CO)C(=O)c2cc(NC(=O)Cc3cn(C)c4ccccc34)ccc2O[C@H]1CN(C)S(=O)(=O)c1ccc(Cl)cc1`, 454 nM; in that of `CCOc1ccccc1/C=C/c1onc(C)c1S(=O)(=O)N1CCC(C(=O)NC(C)(C)C)CC1`, 77 nM.
The same measure, in the same setting: the result for `O=C(Nc1cc(Cl)ccc1Cl)c1cc(Cl)ccc1NS(=O)(=O)c1ccc(Cl)c([N+](=O)[O-])c1` reads 444 nM; that for `Cc1cc(C(=O)C(C)OC(=O)C2=NNC(=O)CC2)c(C)n1-c1ccc(OC(F)F)cc1` (stereo not drawn), 1300 nM.
As for `CC(C)NC(=O)Nc1cccc2c1O[C@H](CN(C)Cc1ccc(Cl)c(Cl)c1)[C@@H](C)CN([C@@H](C)CO)C2=O`, the AC50 is 1050 nM.
On to `C[C@H](CO)N1C[C@H](C)[C@H](CN(C)S(=O)(=O)c2ccc(F)cc2)Oc2ccc(NC(=O)CCC(F)(F)F)cc2C1=O`, for which the AC50 was > 35000 nM (inactive).
Same read-out and setting: in the case of `CC(OC(=O)c1cccc(NS(C)(=O)=O)c1)C(=O)Nc1ccc(N2CCOCC2)cc1` (stereo not drawn) it was 335 nM; in that of `C[C@H]1CN([C@@H](C)CO)C(=O)c2cccc(NC(=O)Nc3ccc(F)cc3)c2O[C@@H]1CN(C)Cc1ccc(Cl)c(Cl)c1`, 1390 nM.
On the same count and under the same terms, in the case of `CCn1c(COc2c(C)cccc2C)nnc1SCC(=O)N1CCN(c2ccccc2)CC1` it was 2790 nM.
The same measure, in the same setting: the result for `Cc1ccc(-c2nnc(N3CCC(C)CC3)c3ccccc23)cc1C` reads 197 nM; that for `O=C(Nc1ccc(-c2nc3ccc(NC(=O)c4ccccc4)cc3[nH]2)cc1)c1ccccc1`, 526 nM.
For `O=C(Nc1ccccc1Cl)c1ccccc1NS(=O)(=O)c1ccccc1`, the AC50 was 33300 nM.
On the same count and under the same terms, in the case of `CCOc1ccc(NC(=O)CN2CCN(CC(=O)Nc3cc(OC)cc(OC)c3)CC2)cc1` it was below 30 nM; in that of `CCOC(=O)N1CCC(NC(=O)c2ccc3c(c2)N(Cc2ccc(F)cc2)CCS3)CC1`, 32 nM.
The same measure, in the same setting: in the case of `Cc1cc(SC(C)C(=O)Nc2ncc(Cl)cc2Cl)nc2ccccc12` (stereo not drawn) it was 491 nM; in that of `O=C(Nc1ccc(-c2nc3ccc(NC(=O)c4ccc(Cl)cc4)cc3[nH]2)cc1)c1ccc(Cl)cc1`, below 15 nM.
On to `C[C@@H]1CN([C@H](C)CO)C(=O)c2cc(NC(=O)Cc3cn(C)c4ccccc34)ccc2O[C@H]1CN(C)C(=O)Nc1ccc(F)cc1`, for which the AC50 is 3290 nM.
The same measure, in the same setting: in the case of `O=C(Nc1cc(C(F)(F)F)ccc1Cl)c1ccccc1NS(=O)(=O)c1ccc(Cl)cc1` it was 1380 nM; in that of `COc1ccc(OC)c(CCNC(=O)c2ccc3c(c2)N(Cc2ccc(F)cc2)CCS3)c1`, 559 nM; in that of `C[C@H](CO)N1C[C@H](C)[C@@H](CN(C)S(=O)(=O)c2ccc(F)cc2)Oc2ccc(NC(=O)Cc3cn(C)c4ccccc34)cc2C1=O`, 38500 nM.
Same read-out and setting: the result for `O=C(Nc1cc(Cl)ccc1Cl)c1cc(Br)ccc1NS(=O)(=O)c1ccc(Cl)c([N+](=O)[O-])c1` reads 426 nM.
On the same count and under the same terms, in the case of `C[C@@H]1CN([C@@H](C)CO)C(=O)c2cc(NC(=O)Cc3cn(C)c4ccccc34)ccc2O[C@H]1CN(C)S(=O)(=O)c1ccc(F)cc1` it was 2190 nM.
For the molecule `O=C(Nc1ccc(-c2nc3cc(NC(=O)c4ccccc4Cl)ccc3o2)cc1)c1ccccc1Cl`, the AC50 is 16 nM.
On the same count and under the same terms, in the case of `O=C(Nc1ccc(-c2nc3cc(NC(=O)c4ccc(NC(=O)c5cccc6ccccc56)cc4)ccc3[nH]2)cc1)c1ccc(NC(=O)c2cccc3ccccc23)cc1` it was below 15 nM.
Still for that read-out and setting: the result for `C[C@@H]1CN([C@H](C)CO)C(=O)c2cc(NC(=O)Cc3cn(C)c4ccccc34)ccc2O[C@H]1CN(C)S(=O)(=O)c1ccc(F)cc1` reads 1090 nM; that for `O=C(Nc1ccccc1)c1ccccc1NS(=O)(=O)c1ccc(Cl)cc1`, 47800 nM; that for `C[C@H]1CN([C@@H](C)CO)C(=O)c2cccc(N(C)C)c2O[C@@H]1CN(C)Cc1ccc(Cl)c(Cl)c1`, 42400 nM.
The same measure, in the same setting: in the case of `CCc1sc(N2C(=O)C3C4CCC(C4=C(C)C)C3C2=O)nc1-c1ccccc1` (stereo not drawn) it was 754 nM.
Take `C[C@H]1CN([C@@H](C)CO)C(=O)c2cccc(NC(=O)Nc3ccccc3)c2O[C@@H]1CN(C)Cc1ccc(Cl)c(Cl)c1`: the AC50 is 1500 nM.
Same read-out and setting: the result for `C[C@H]1CN([C@@H](C)CO)C(=O)c2cccc(NC(=O)Nc3ccccc3)c2O[C@@H]1CN(C)C` reads 17300 nM; that for `CCC(=O)N1CCc2cc(-c3csc(NC(=O)c4ccco4)n3)ccc21`, 17 nM; that for `CNC[C@@H]1Oc2ccc(NC(=O)Cc3cn(C)c4ccccc34)cc2C(=O)N([C@H](C)CO)C[C@H]1C`, 48000 nM.
Same read-out and setting: the result for `COC(=O)c1cn(C(=O)c2cccc3ccccc23)c2ccccc12` reads 3610 nM; that for `O=C(Nc1ccc(-c2nc3cc(NC(=O)c4ccccc4[N+](=O)[O-])ccc3o2)cc1)c1ccccc1[N+](=O)[O-]`, below 15 nM.
On the same count and under the same terms, in the case of `N#Cc1sc2nc(C3CC3)cc(-c3ccc(Cl)cc3)c2c1N` it was 1640 nM.
As to `O=C(Nc1ccc(Cl)cc1C(=O)c1ccc(Cl)cc1)c1cc(Br)ccc1NS(=O)(=O)c1ccc(Cl)cc1`, the AC50 is 494 nM.
As to `CCc1cc2cc3c(cc2nc1SCC(=O)OC(C)C)OCO3`, the AC50 was 79 nM.
On the same count and under the same terms, the result for `CC(C)OCCCNC(=O)c1ccc(C2SCC(=O)N2Cc2ccco2)cc1` (stereo not drawn) reads 1380 nM; that for `C[C@H]1CN([C@@H](C)CO)C(=O)c2cccc(NC(=O)Nc3ccccc3)c2O[C@@H]1CN(C)Cc1ccccc1`, 13400 nM.

By AC50 is commonly meant the concentration at which the activity in the assay is half-maximal.
